Literature values in patent US20220160797A1 (North Carolina State University, priority 2019, published 2022).

System: L. acidophilus NCFM
Details: grown on esculin compared to lactose

In the case of `O=c1ccc2cc(O[C@@H]3O[C@H](CO)[C@@H](O)[C@H](O)[C@H]3O)c(O)cc2o1` [esculin], the “up-regulation of gene lba0753” value is given as 2.3 log2.
